Results as given in publication PMC7367873, “Dissecting the sequence determinants for dephosphorylation by the catalytic subunits of phosphatases PP1 and PP2A” (Nature Communications, 2020).

Tested on: GFP-14-3-3β and its binding proteins
Experiment: GFP-14-3-3β co-IP with LC-MS/MS label-free quantification, untreated versus PP1c-treated
Parameters: species or system human

number of proteins significantly dissociating from 14-3-3 (1 µM recombinant PP1c, 1 h at 30 °C, FDR 0.05, of 108 interacting proteins, three replicates): 56 proteins
Difference (log2), PP1 vs untreated (log2 difference, pairwise comparison PP1 vs untreated, label-free quantification, 3 replicates each): 5.428
number of dissociating proteins with at least one PP1c-regulated phosphorylation site (mapped onto phosphoproteomic dataset, of 56 proteins): 35 proteins
14-3-3-protein interactions disrupted (recombinant PP1c): 52%
Substance: PP1c: recombinant catalytic subunit of PP1
